# From ChEMBL document CHEMBL5126529, “Drug discovery of histone lysine demethylases (KDMs) inhibitors (progress from 2018 to present)” (Eur J Med Chem, 2022)
# Assays:
# [1] = target: T1, Lysine-specific histone demethylase 1A (Homo sapiens, UniProt O60341); experiment: Inhibition of recombinant human KMD1A (172 to 852 residues) using Bio-H3K4me2 peptide as substrate incubated for 1 hr by Lance ultra TR-FRET assay
# [2] = target: T2, Amine oxidase [flavin-containing] B (Homo sapiens, UniProt P27338); experiment: Inhibition of MAO-B (unknown origin) by luminescence based assay
# T2 sequence (P27338 whole entry): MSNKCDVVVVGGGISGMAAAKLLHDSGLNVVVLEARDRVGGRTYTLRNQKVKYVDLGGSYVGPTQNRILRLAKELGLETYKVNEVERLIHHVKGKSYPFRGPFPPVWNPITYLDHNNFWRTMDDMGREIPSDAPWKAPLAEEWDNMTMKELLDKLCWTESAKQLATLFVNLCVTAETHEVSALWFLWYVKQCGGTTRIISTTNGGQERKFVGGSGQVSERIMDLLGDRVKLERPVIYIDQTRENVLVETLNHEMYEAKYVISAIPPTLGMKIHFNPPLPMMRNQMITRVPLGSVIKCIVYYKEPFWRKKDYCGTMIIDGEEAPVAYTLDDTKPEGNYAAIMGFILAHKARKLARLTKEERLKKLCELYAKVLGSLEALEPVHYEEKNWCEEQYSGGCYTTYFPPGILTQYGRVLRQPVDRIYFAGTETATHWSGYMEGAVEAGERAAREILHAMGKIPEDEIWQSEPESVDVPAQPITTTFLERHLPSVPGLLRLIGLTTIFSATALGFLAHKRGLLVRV
# [3] = target: T3, Amine oxidase [flavin-containing] A (Homo sapiens, UniProt P21397); experiment: Inhibition of MAO-A (unknown origin) by luminescence based assay
# T3 sequence (P21397 whole entry): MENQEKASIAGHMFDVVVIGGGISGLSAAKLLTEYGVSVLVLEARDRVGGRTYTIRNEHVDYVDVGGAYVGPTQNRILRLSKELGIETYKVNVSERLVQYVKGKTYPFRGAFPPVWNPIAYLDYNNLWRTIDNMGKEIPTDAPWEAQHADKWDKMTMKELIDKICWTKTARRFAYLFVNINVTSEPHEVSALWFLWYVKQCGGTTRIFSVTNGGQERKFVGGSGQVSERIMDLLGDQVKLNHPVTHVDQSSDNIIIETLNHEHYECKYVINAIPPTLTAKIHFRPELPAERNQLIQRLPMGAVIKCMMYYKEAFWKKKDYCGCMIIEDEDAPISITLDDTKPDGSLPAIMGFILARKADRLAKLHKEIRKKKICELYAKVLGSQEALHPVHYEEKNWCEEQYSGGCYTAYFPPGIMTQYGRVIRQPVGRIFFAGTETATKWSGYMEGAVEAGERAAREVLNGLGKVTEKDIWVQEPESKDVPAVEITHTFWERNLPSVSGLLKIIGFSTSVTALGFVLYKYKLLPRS
# [4] = target: T1, Lysine-specific histone demethylase 1A; experiment: Inhibition of recombinant human KDM1A using fluorogenic substrate incubated for 30 mins followed by substrate addition measured after 10 mins by fluorescence based assay
# MAO-A [5] = target: T4, MAO-A (Homo sapiens, UniProt P21397); experiment: Inhibition of recombinant MAO-A (unknown origin) using luciferin substrate at 100 uM preincubated for 15 mins followed by substrate addition measured after 1 hr by luciferase based assay relative to control; settings: probe luciferin substrate, time 75 min
# T4 sequence (P21397 whole entry): T3 sequence (P21397 whole entry)
# MAO-B [6] = target: T5, MAO-B (Homo sapiens, UniProt P27338); experiment: Inhibition of recombinant MAO-B (unknown origin) using luciferin substrate at 100 uM preincubated for 15 mins followed by substrate addition measured after 1 hr by luciferase based assay relative to control; settings: probe luciferin substrate, time 75 min
# T5 sequence (P27338 whole entry): T2 sequence (P27338 whole entry)
# MAO-B [7] = target: T5, MAO-B; experiment: Inhibition of recombinant MAO-B (unknown origin) using luciferin substrate at 10 uM preincubated for 15 mins followed by substrate addition measured after 1 hr by luciferase based assay relative to control; settings: probe luciferin substrate, time 75 min
# MAO-A [8] = target: T4, MAO-A; experiment: Inhibition of recombinant MAO-A (unknown origin) using luciferin substrate at 10 uM preincubated for 15 mins followed by substrate addition measured after 1 hr by luciferase based assay relative to control; settings: probe luciferin substrate, time 75 min
# MAO-B [9] = target: T5, MAO-B; experiment: Inhibition of MAO-B (unknown origin) at 10 uM relative to control
# MAO-A [10] = target: T4, MAO-A; experiment: Inhibition of MAO-A (unknown origin) at 10 uM relative to control
# MOLT-4 = experiment: cells; settings: Homo sapiens
# LC4-1 = experiment: cells; settings: Homo sapiens
# KE-37 = experiment: cells; settings: Homo sapiens
# [11] = target: T3, Amine oxidase [flavin-containing] A; experiment: Inhibition of MAO-A (unknown origin) by luminometry
# SUP-B15 = experiment: cells; settings: Homo sapiens
# P30-OHK = experiment: cells; settings: Homo sapiens
# HAL-01 = experiment: cells; settings: Homo sapiens
# [12] = target: T1, Lysine-specific histone demethylase 1A; experiment: Inhibition of KDM1A (unknown origin) by fluorescence based assay
# [13] = target: T3, Amine oxidase [flavin-containing] A; experiment: Binding affinity to human MAO-A assessed as inhibition constant using tyramine as substrate incubated for 30 mins by enzymatic assay
# [14] = target: T1, Lysine-specific histone demethylase 1A; experiment: Binding affinity to human KDM1A (172 to 833 residues) assessed as inhibition constant using Lys4-dimethylated H3 peptide as substrate incubated for 30 mins by enzymatic assay
# [15] = target: T2, Amine oxidase [flavin-containing] B; experiment: Binding affinity to human MAO-B assessed as inhibition constant using tyramine as substrate incubated for 30 mins by enzymatic assay
# [16] = target: Lysine-specific histone demethylase 2 (Homo sapiens, UniProt Q8NB78); experiment: Binding affinity to KDM1B (unknown origin) assessed as inhibition constant using Lys4-dimethylated H3 peptide as substrate incubated for 30 mins by enzymatic assay
# Lysine-specific histone demethylase 2, sequence (Q8NB78 whole entry, the tested form may be a part): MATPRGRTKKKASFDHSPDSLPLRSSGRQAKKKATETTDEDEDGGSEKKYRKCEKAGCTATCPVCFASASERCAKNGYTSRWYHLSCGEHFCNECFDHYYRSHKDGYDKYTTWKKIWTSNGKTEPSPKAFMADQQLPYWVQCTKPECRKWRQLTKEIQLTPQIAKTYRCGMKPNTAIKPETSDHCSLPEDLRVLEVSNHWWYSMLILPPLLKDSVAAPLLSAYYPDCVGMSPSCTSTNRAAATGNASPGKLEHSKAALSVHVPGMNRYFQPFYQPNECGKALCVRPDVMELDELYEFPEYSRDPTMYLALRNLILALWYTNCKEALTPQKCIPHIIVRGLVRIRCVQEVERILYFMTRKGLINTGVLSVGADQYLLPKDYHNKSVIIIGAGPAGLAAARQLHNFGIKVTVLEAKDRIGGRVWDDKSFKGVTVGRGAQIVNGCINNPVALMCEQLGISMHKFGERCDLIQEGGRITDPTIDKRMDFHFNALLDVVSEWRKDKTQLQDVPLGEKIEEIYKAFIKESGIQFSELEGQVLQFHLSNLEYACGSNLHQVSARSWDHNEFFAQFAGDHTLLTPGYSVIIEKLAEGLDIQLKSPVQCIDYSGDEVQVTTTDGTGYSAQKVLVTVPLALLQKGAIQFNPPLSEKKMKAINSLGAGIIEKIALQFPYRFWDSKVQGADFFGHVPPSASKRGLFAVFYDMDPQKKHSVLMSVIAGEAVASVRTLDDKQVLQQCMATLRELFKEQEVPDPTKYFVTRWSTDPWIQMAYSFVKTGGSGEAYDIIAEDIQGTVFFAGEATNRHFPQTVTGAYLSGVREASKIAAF
# [17] = target: Lysine-specific demethylase 5C (Homo sapiens, UniProt P41229); experiment: Inhibition of N-terminal FLAG/His-tagged full-length human KDM5C (2 to 1560 residues) expressed in baculovirus infected Sf9 insect cells using peptide substrate at 10 uM incubated for 2 hrs by Alpha Screen assay relative to control
# Lysine-specific demethylase 5C, sequence (P41229 whole entry, the tested form may be a part): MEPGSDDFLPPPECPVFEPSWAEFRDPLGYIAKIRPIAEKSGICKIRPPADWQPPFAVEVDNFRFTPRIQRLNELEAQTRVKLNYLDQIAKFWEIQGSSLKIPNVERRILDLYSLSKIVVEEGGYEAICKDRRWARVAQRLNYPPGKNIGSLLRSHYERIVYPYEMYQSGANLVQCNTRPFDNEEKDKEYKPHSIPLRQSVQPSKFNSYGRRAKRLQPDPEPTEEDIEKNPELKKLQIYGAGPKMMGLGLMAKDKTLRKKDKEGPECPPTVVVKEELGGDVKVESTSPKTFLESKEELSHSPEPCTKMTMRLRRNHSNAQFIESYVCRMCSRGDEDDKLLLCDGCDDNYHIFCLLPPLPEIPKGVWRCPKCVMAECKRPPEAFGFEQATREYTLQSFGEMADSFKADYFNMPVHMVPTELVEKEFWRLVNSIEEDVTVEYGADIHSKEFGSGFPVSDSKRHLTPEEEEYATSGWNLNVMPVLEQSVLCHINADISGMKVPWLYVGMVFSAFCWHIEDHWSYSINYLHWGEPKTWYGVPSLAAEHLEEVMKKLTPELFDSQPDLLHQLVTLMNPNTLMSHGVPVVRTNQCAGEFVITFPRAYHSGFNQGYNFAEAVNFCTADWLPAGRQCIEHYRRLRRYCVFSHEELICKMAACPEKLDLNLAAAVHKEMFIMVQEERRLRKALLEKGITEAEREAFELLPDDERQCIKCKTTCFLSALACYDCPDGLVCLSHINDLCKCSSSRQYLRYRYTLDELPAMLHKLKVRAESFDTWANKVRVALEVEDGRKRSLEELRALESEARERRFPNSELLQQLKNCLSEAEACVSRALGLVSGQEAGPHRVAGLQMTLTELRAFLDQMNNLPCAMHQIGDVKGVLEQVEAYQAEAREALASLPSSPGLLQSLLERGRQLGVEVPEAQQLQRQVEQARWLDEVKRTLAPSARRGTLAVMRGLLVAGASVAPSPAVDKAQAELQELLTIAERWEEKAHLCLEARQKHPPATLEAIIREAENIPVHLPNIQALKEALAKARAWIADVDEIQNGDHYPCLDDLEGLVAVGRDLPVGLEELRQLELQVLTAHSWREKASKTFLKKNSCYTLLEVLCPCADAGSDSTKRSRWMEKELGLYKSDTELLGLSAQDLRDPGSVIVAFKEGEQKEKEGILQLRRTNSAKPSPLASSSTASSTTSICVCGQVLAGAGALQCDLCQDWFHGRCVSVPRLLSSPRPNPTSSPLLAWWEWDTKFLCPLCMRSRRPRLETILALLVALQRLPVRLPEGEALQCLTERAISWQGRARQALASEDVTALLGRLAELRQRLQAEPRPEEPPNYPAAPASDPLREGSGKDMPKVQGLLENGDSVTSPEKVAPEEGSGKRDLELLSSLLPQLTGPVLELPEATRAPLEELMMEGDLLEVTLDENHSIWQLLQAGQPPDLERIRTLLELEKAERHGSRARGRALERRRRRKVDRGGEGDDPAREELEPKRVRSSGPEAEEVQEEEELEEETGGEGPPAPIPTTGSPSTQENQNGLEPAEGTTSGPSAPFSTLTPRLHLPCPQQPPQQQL
# [18] = target: T1, Lysine-specific histone demethylase 1A
# [19] = target: T2, Amine oxidase [flavin-containing] B
smiles,measurement,setting,value
CC1(C)C(N[C@@H]2C[C@H]2c2ccccc2)CCC1N[C@@H]1C[C@H]1c1ccccc1 (stereo partly specified),IC50,[1],4.8 µM
same,IC50,[2],9.41 µM
same,IC50,[3],7.29 nM
Cn1c(C(=O)Nc2cccc3c2N(Cc2ccc(OC4CCNCC4)cc2)CCC3)cc2ccccc21,IC50,[4],50 nM
Cc1ccc(-c2nc(SCc3cn(CC(=O)NC(=O)Nc4ccccn4)nn3)nc(Nc3cccc(C(F)(F)F)c3)c2C#N)cc1,"inhibition at 1 h, 100 µM",MAO-A [5],< 5%
same,"inhibition at 1 h, 100 µM",MAO-B [6],< 5%
Oc1ccc(CC2NCCc3cc(O)c(O)cc32)cc1 (stereo unspecified) [HIGENAMINE],"inhibition at 1 h, 10 µM",MAO-B [7],< 15%
same,"inhibition at 1 h, 10 µM",MAO-A [8],< 15%
COc1ccc(-c2coc3cc(O)cc(O)c3c2=O)cc1 [BIOCHANIN],inhibition at 10 µM,MAO-B [9],36.8%
same,inhibition at 10 µM,MAO-A [10],23.5%
CC(C)(C)OC(=O)N1CCN(C(=S)SCC(=O)Nc2ccc(C(=O)/C=C/c3ccccc3F)cc2)CC1,IC50,MOLT-4,870 nM
same,IC50,LC4-1,2730 nM
same,IC50,KE-37,3.64 µM
same,IC50,[11],20 µM
same,IC50,SUP-B15,1870 nM
same,IC50,P30-OHK,3.85 µM
same,IC50,HAL-01,1100 nM
COc1cc2c(cc1OC)-c1c(C)c3ccc(OC)c(OC)c3c[n+]1CC2 [DEHYDROCORYDALINE],IC50,[12],2440 nM
CN1CCN(C(=O)NC2CC2c2cc(F)cc(F)c2OCc2ccccc2)CC1 (stereo unspecified),Ki,[13],> 250 µM
same,Ki,[14],370 nM
same,Ki,[15],> 250 µM
same,Ki,[16],> 250 µM
COC(=O)c1ccnc(-c2cn(CCN(C)CCCCCCCCCCOc3cccc4c3C(=O)N(C3CCC(=O)NC3=O)C4=O)nn2)c1 (stereo unspecified),inhibition,[17],14%
CCOC(=O)C(c1cc(OC)c(OC)cc1O)N1CCOCC1 (stereo unspecified),IC50,[18],296 nM
O=C(c1ccc(OCCN2CCCCC2)cc1)c1c(-c2ccc(O)cc2)sc2cc(O)ccc12 [RALOXIFENE],IC50,[19],> 200 µM
CCCC(=O)NC(c1ccc(N(CC)CC)cc1)c1cc(Cl)c2cccnc2c1O (stereo unspecified),IC50,[18],3.9 nM
